This is an account of results in PubChem BioAssay (NCI).

Where “and” joins values, the source holds several entries; their conditions need not be identical. Identical values can stand only once.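 Dose response: 5 concentrations. Exposure: 48 h. Format: 96-well plates. Endpoint: linear interpolation; highest concentration if not reached. Abbreviation: GI50, concentration required for 50% inhibition of growth. At the TGI there is no net growth.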

What all share (test): NCI tumour cell line growth inhibition, 48 h
In assay [1] the test system is MOLT-4 leukemia.
In assay [2] the test system is HT29 colon.
For assay [3], the system named is RPMI-8226 leukemia.
In assay [4] the test system is MDA-MB-435.
The test system of assay [5] is K-562 leukemia.
For assay [6], the system named is M14 melanoma.
The subject of assay [7] is U251 CNS.
The subject of assay [8] is OVCAR-3 ovarian.
Assay [9] has as its system MCF7 breast.
Assay [10] relates to RXF 393 renal.

For `CC(=O)Nc1cccc(-n2c(=O)n(C3CC3)c(=O)c3c(Nc4ccc(I)cc4F)n(C)c(=O)c(C)c32)c1`, the GI50 in assay [1] was 6.96 µM and > 9.64 µM; in assay [2] it was < 0.01 µM and 0.00172 µM; in [3], 5.35 µM and > 4.38 µM; in assay [4], < 0.01 µM and 0.00313 µM; in assay [5] it was 0.0955 µM and 0.196 µM; in assay [6], < 0.01 µM and 0.00173 µM. The GI50 in assay [7] was 0.401 µM; in [8], 8.33 µM and > 10 µM; in [9] it was 12.1 µM and > 8.55 µM; in [10], 0.0661 µM and 0.148 µM. Besides, the TGI in [1] is greater than 100 µM; in assay [2], 15.9 µM and > 10 µM; in assay [3], greater than 100 µM; in assay [4] it was 25 µM and > 10 µM; in assay [5], greater than 100 µM; in assay [6] it was less than 0.01 µM. Further, the TGI was 32 µM and > 10 µM in [7]; 60.9 µM and > 10 µM in [8]; greater than 69.5 µM in [9]; 13.1 µM and > 5.97 µM in assay [10].
As for `CC(=O)OCC1OC(O[C@@H]2C[C@H]3C(C)(C)[C@H](OC(C)=O)CC[C@]3(C)[C@H]3CCC4=C([C@@H](C)C[C@@H](O)[C@H](O)C(C)(C)O)CC[C@@]4(C)[C@@]32C)C(O)C(O)C1O` (stereo not given in full), the GI50 in assay [1] was 13.3 µM; in [2], 16.6 µM; in [3], 10.5 µM; in assay [4], 16 µM; in assay [5], 12.7 µM; in assay [6], 17.3 µM. Further, the GI50 is 14.4 µM in [8], 2.89 µM in assay [9] and 14.8 µM in assay [10]. Further, the TGI in assay [1] is 35.3 µM; in [2] it was 30.2 µM; in assay [3], 30.1 µM; in assay [4] it was 29.5 µM; in assay [5], 32.5 µM; in [6], 31.4 µM. The TGI in [7] was 28 µM; in assay [8] it was 27.8 µM; in assay [9], 11.9 µM; in [10], 28 µM.
Turning to `O=C(NNc1nc2c(F)cccc2n2cccc12)c1cnccn1`, the GI50 in [1] is 0.302 µM; in [2], 0.604 µM; in assay [3] it was 0.418 µM; in assay [4], 0.821 µM; in assay [5], 0.478 µM; in assay [6], 0.269 µM. Besides, the GI50 in assay [7] was 0.306 µM; in [8], 0.454 µM; in assay [9], 0.412 µM; in [10] it was 0.986 µM. The TGI was greater than 100 µM in assay [1]; 50.3 µM in assay [2]; 9.88 µM in [3]; 26.3 µM in [4]; greater than 100 µM in assay [5]; 11.7 µM in assay [6]. The TGI in [7] amounted to 29.2 µM; in [8], 13.6 µM; in [9] it was 29.6 µM; in [10], 7.29 µM.
Turning to `O=C(CSc1nc2ccc([N+](=O)[O-])cc2[nH]1)Nc1ccc(F)c(Cl)c1`, the GI50 in assay [1] is 2.7 µM; in assay [2], 3.14 µM; in assay [3], 1.39 µM; in assay [4], 2.6 µM; in [5], 2.44 µM; in assay [6], 2.81 µM. Besides, the GI50 is 2.5 µM in assay [7], 2 µM in assay [8], 2.03 µM in assay [9] and 2.34 µM in [10]. The TGI in assay [1] was 19.9 µM; in [2], 11.9 µM; in assay [3], greater than 21.5 µM; in assay [4], 12.6 µM; in assay [5] it was greater than 42.3 µM; in assay [6], 12.4 µM. The TGI was determined as 12.3 µM in [7], 10.1 µM in assay [8], 9.4 µM in [9] and 7.84 µM in assay [10].
Regarding `CCc1c2c(nc3cc4c(cc13)OCO4)-c1cc3c(c(=O)n1C2)COC(=O)[C@]3(O)CC`, the GI50 in [1] is less than 0.001 µM; in assay [2], 0.0537 µM; in [3], 0.00315 µM; in [4], 0.0182 µM and 0.0961 µM; in assay [6], less than 0.001 µM; in assay [8] it was 0.476 µM and 1.87 µM. Moreover, the GI50 in assay [9] was less than 0.001 µM. For the same molecule, the TGI is 0.0106 µM and 0.0339 µM in assay [1]; greater than 100 µM in [2]; 0.391 µM in [3]; greater than 100 µM in [4]; greater than 100 µM in assay [5]; greater than 100 µM in assay [6]. Also, the TGI in assay [8] is greater than 100 µM; in assay [10], 0.117 µM and 0.478 µM.
For `O=C(c1ccc2ccccc2c1)c1c(C(F)(F)F)n([O-])c2cc(Cl)c(Cl)cc2[n+]1=O`, the GI50 is 1.14 µM in [1]; 1.49 µM in assay [2]; 1.58 µM in assay [3]; 1.92 µM in [4]; 1.56 µM in assay [5]; 1.66 µM in assay [6]. Also, the GI50 in assay [7] was 1.61 µM; in [8], 1.39 µM; in assay [9], 1.68 µM; in assay [10] it was 1.6 µM. Further, the TGI in assay [1] was determined as 2.84 µM; in assay [2], 2.81 µM; in assay [3], 3.85 µM; in [4] it was 3.56 µM; in [5], 3.12 µM; in assay [6], 3.04 µM. Moreover, the TGI in assay [7] stood at 2.96 µM; in assay [8] it was 2.69 µM; in assay [9] it was 3.41 µM; in assay [10], 3.04 µM.
On to `Cc1nn(-c2ccc(S(=O)(=O)[O-])cc2)c([O-])c1N=[N+](C)c1ccc(-c2ccc(N=Nc3ccc4c(S(=O)(=O)[O-])cc(S(=O)(=O)[O-])c(N)c4c3[O-])c([O-])c2)cc1[O-].[Cu+2].[Cu+2].[Na+]`, for which the GI50 in [1], in assay [2], in assay [3], in assay [4], in [5] and in assay [6] was greater than 100 µM in each case. Further, the GI50 in assay [7], in [8], in assay [9] and in [10] was greater than 100 µM each time. In addition, the TGI in assay [1], in assay [2], in [3], in assay [4], in assay [5] and in assay [6] was greater than 100 µM each time. Moreover, the TGI in assay [7], in assay [8], in [9] and in assay [10] was greater than 100 µM each time.
For the molecule `C[C@@H]1CC[C@@H]2[C@@H]1[C@H](OC(=O)/C=C/c1ccccc1)[C@]1(c3ccccc3)C[C@@H](OC(=O)CO)[C@@]2(C)O1`, the GI50 is 6.86 µM in assay [1]; 15.9 µM in [2]; 10.3 µM in assay [3]; 14.9 µM in assay [4]; 7.76 µM in assay [5]; 16.2 µM in [6]. The GI50 was 14.2 µM in assay [7], 13.3 µM in assay [8], 9.19 µM in [9] and 0.252 µM in assay [10]. For the same molecule, the TGI is 33.9 µM in assay [1]; 37.8 µM in [2]; 38.9 µM in assay [3]; 33.2 µM in [4]; greater than 100 µM in assay [5]; 35.8 µM in [6]. In addition, the TGI worked out at 29.3 µM in assay [7], 27 µM in [8], 26.5 µM in assay [9] and 13.7 µM in assay [10].
For the molecule `Oc1ccccc1/C=N/Nc1ccc2ccccc2n1`, the GI50 is 2.6 µM in assay [1]; 9.46 µM in [2]; 3.45 µM in assay [3]; 6.42 µM in assay [4]; 3.18 µM in assay [5]; 3.65 µM in [6]. Besides, the GI50 was 4.23 µM in assay [7], 2.82 µM in assay [8], 4.92 µM in [9] and 18.3 µM in assay [10]. Also, the TGI in assay [1], in assay [2], in assay [3], in [4], in [5] and in [6] was greater than 100 µM each time. For the same molecule, the TGI in assay [7] is 31.5 µM; in [8], 13.8 µM; in [9] it was 91.5 µM; in assay [10], greater than 100 µM.
Consider `O=C1/C(=C/c2ccc(F)cc2)CCOc2ccc([N+](=O)[O-])cc21`, for which the GI50 was 2.49 µM in assay [1]; 0.862 µM in [3]; 1.94 µM in assay [4]; 0.964 µM in assay [5]; 2.22 µM in [6]; 40.1 µM in assay [7]. The GI50 in [8] was 2.33 µM; in [9], 2.91 µM; in assay [10], 1.71 µM. The TGI was 6.02 µM in [1]; 3.14 µM in [3]; 7.26 µM in assay [4]; greater than 100 µM in assay [5]; 5.61 µM in assay [6]; greater than 100 µM in assay [7]. In addition, the results for the TGI in assay [8], in assay [9] and in [10] were 5.61 µM, 9.29 µM and 3.7 µM, respectively.
Consider `C#Cc1cnc(=O)n(C2CC(O)C(CO)O2)c1` (stereo not given), for which the GI50 in [1] was 98.9 µM; in assay [3], 8.51 µM; in assay [4], greater than 100 µM; in [5], greater than 100 µM; in [6], greater than 100 µM; in assay [7] it was greater than 100 µM. Further, the figures for the GI50 in assay [8], in assay [9] and in assay [10] were 97 µM, greater than 100 µM and greater than 100 µM, respectively. The TGI was greater than 100 µM in assay [1]; greater than 22.8 µM in assay [3]; greater than 100 µM in assay [4]; greater than 100 µM in [5]; greater than 100 µM in assay [6]; greater than 100 µM in assay [7]. Also, the TGI in assay [8], in assay [9] and in [10] was greater than 100 µM each time.
